Laboratory results published in ChEMBL document CHEMBL1201862, “PubChem BioAssay data set” (2004).
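Step 1: Grow cells in 96-well plates. Step 2: Expose to compound for 48 hours at 5 concentrations. Step 3: Interpolate endpoints linearly; if unreached, use highest concentration. GI50 = concentration required for 50% inhibition of growth.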 Active and inactive are the calls of the source. No stated cut-off is given here; in the data, active = GI50 up to about 1.1 µM and inactive = higher.

Assays:
Experiment in all cases: NCI anticancer screen, dose series, 48 h
CCRF-CEM = test system: CCRF-CEM
LOX IMVI = test system: LOX IMVI
IGROV-1 = test system: IGROV-1
Malme-3M = test system: Malme-3M
HT-29 = test system: HT-29
SK-MEL-5 = test system: SK-MEL-5
Hs-578T = test system: Hs-578T
SK-MEL-28 = test system: SK-MEL-28
MDA-N = test system: MDA-N
COLO 205 = test system: COLO 205
HL-60 = test system: HL-60
ACHN = test system: ACHN
RXF 393 = test system: RXF 393
SK-MEL-2 = test system: SK-MEL-2
NCI-H522 = test system: NCI-H522
SF-268 = test system: SF-268
HCT-116 = test system: HCT-116
U-251 = test system: U-251
SW-620 = test system: SW-620
SR = test system: SR

Structure (SMILES)	GI50 (CCRF-CEM)	GI50 (LOX IMVI)	GI50 (IGROV-1)	GI50 (Malme-3M)	GI50 (HT-29)	GI50 (SK-MEL-5)	GI50 (Hs-578T)	GI50 (SK-MEL-28)	GI50 (MDA-N)	GI50 (COLO 205)	GI50 (HL-60)	GI50 (ACHN)	GI50 (RXF 393)	GI50 (SK-MEL-2)	GI50 (NCI-H522)	GI50 (SF-268)	GI50 (HCT-116)	GI50 (U-251)	GI50 (SW-620)	GI50 (SR)
Cc1ccc(N(Cc2ccccc2)Cc2ccccc2)cc1	28 µM (inactive)	34 µM (inactive)	23.7 µM (inactive)	17 µM (inactive)	29.9 µM (inactive)	32.1 µM (inactive)	40.5 µM (inactive)	54.2 µM (inactive)	33.8 µM (inactive)	24.3 µM (inactive)	51.4 µM (inactive)	> 100 µM (inactive)	59 µM (inactive)	24.3 µM (inactive)	22 µM (inactive)	50.1 µM (inactive)	28.6 µM (inactive)	65.9 µM (inactive)	46.3 µM (inactive)	–
CC1=CC(O)C(C(O)(C(F)(F)F)C(F)(F)F)C(C)(C)C1 (configuration not stated)	> 10 µM (inactive)	> 10 µM (inactive)	0.188 µM (active)	> 10 µM (inactive)	> 10 µM (inactive)	0.0371 µM (active)	> 10 µM (inactive)	> 10 µM (inactive)	> 10 µM (inactive)	> 10 µM (inactive)	> 10 µM (inactive)	> 10 µM (inactive)	> 10 µM (inactive)	> 10 µM (inactive)	> 10 µM (inactive)	> 10 µM (inactive)	> 10 µM (inactive)	> 10 µM (inactive)	> 10 µM (inactive)	–
O=C1/C(=C/c2ccco2)N=C2Sc3c([nH]cnc3=O)N12	> 100 µM (inactive)	> 100 µM (inactive)	> 100 µM (inactive)	> 100 µM (inactive)	> 100 µM (inactive)	> 100 µM (inactive)	> 100 µM (inactive)	> 100 µM (inactive)	> 100 µM (inactive)	> 100 µM (inactive)	> 100 µM (inactive)	> 100 µM (inactive)	> 100 µM (inactive)	> 100 µM (inactive)	> 100 µM (inactive)	> 100 µM (inactive)	> 100 µM (inactive)	> 100 µM (inactive)	> 100 µM (inactive)	–
COc1cc2c(cc1OC)CC(=O)c1cc(OC)c(OC)cc1/C=C\2	> 12.5 µM (inactive)	> 12.5 µM (inactive)	10.8 µM (inactive)	2.93 µM (inactive)	5.79 µM (inactive)	7.74 µM (inactive)	> 12.5 µM (inactive)	> 12.5 µM (inactive)	2.8 µM (inactive)	11.1 µM (inactive)	2.24 µM (inactive)	> 12.5 µM (inactive)	> 12.5 µM (inactive)	> 12.5 µM (inactive)	9.44 µM (inactive)	> 12.5 µM (inactive)	> 12.5 µM (inactive)	> 12.5 µM (inactive)	6.37 µM (inactive)	–
COc1ccc(C(=O)/C=C2\Nc3cccnc3N\C2=C/C(=O)c2ccc(OC)cc2)cc1	> 100 µM (inactive)	13.9 µM (inactive)	5.11 µM (inactive)	11.7 µM (inactive)	14.5 µM (inactive)	25.1 µM (inactive)	15.2 µM (inactive)	16.9 µM (inactive)	64.7 µM (inactive)	60.5 µM (inactive)	> 100 µM (inactive)	17.7 µM (inactive)	–	23.7 µM (inactive)	–	7.8 µM (inactive)	15.2 µM (inactive)	14.6 µM (inactive)	–	16.1 µM (inactive)
C=C1C(OC)=C(OC)C(=O)c2[nH]c3c(OC)cc([N+](=O)[O-])cc3c21	> 100 µM (inactive)	> 100 µM (inactive)	> 100 µM (inactive)	> 100 µM (inactive)	> 100 µM (inactive)	> 100 µM (inactive)	> 100 µM (inactive)	> 100 µM (inactive)	> 100 µM (inactive)	> 100 µM (inactive)	> 100 µM (inactive)	> 100 µM (inactive)	37 µM (inactive)	> 100 µM (inactive)	> 100 µM (inactive)	> 100 µM (inactive)	> 100 µM (inactive)	> 100 µM (inactive)	> 100 µM (inactive)	–
